Results as given in patent US11806402B2, “Sulfoalkyl ether cyclodextrin compositions” (CyDex Pharmaceuticals, Inc., priority 2008, dated 2023).

Test: Assay and impurity analysis (HPLC) of heat-stressed SBE6.6-β-CD/glucocorticosteroid (budesonide) formulation
Type: physicochemical
Conditions: glucocorticosteroid standard, no SBE6.6-β-CD lot
Method: Comparative evaluation of the stability of various lots of SBE6.6-β-CD that underwent a single or a double treatment with activated carbon (according to Examples 27 and 24, respectively) were formulated with a glucocorticosteroid (budesonide) and an excipient (water), and were examined by HPLC. The general procedure is provided below.
SBE6.6-β-CD solutions (7.5% w/w, formulated with SBE6.6-β-CD Lot Nos. 17CX01.HQ00025, 17CX01.HQ00029 and 17CX01.HQ00041), were prepared by dissolving about 7.5 grams of SBE6.6-β-CD (corrected for water content) in 100 mL of water. A glucocorticosteroid was weighed in amounts in excess of the anticipated solubilities directly into TEFLON®-lined screw-capped containers. Approximately 275 μg/mL of the glucocorticoid steroid was vigorously stirred for 2 hours in an amber glass container. At the end of the agitation time, the glucocorticosteroid solution was filtered using a 0.24 μm syringe filter.
Control solution samples were removed before autoclaving. Aliquots of the solutions were autoclaved for four 20 minute cycles at 121° C. The samples were then analyzed by HPLC to determine assay content and the level of impurities formed during the heating cycles. Solution samples of SBE6.6-β-CD were prepared and analyzed on a PERKIN ELMER Lambda 35 UV/Vis spectrophotometer, scanning from 190 nm to 400 nm at a speed of 240 nm/min and a slit width of 1.0 nm to determine the UV content.

Compound: CCCC1O[C@@H]2C[C@H]3[C@@H]4CCC5=CC(=O)C=C[C@]5(C)[C@H]4[C@@H](O)C[C@]3(C)[C@]2(C(=O)CO)O1 (stereo partly drawn) [Glucocorticosteroid (“GS”) Std., budesonide]
- Assay GS Total: 99.385 Area %
- Assay R-GS: 51.888 Area %
- Assay S-GS: 47.497 Area %
- Assay Δ: 0%
- Impurities A: 0.001 Area %
- Impurities B (S-11-keto-derivative): 0.127 Area %
